According to patent US20260284016A1, “COMBINATIONS AND METHODS FOR ENHANCING CHECKPOINT INHIBITOR THERAPIES IN CANCER TREATMENT” (PURDUE RESEARCH FOUNDATION, priority 2004, published 2026):

What was measured:
[1] = test system: M2-induced THP-1 macrophages; assay: Secreted CCL18 and IL-1β in THP-1 supernatants by ELISA; type: cell-based, human; conditions: low concentration range (0.1-10 nM), ELISA
Experimental: FIGS. 6A-6D show graphical data representative of various marker levels measured from M2-induced THP-1 macrophages treated with different concentrations of drugs for 48 hours (FIGS. 6A and 6B) or for 2 hours, then displaced with fresh medium and cultured for the remaining 46 hours (FIGS. 6C and 6D). In both cases, cell supernatants were collected and secreted CCL18 protein and IL-1β was detected by ELISA.
Further, to ensure that the above mRNA analyses accurately reflected the levels of anti-inflammatory cytokines produced by IL-4, IL-6 plus IL-13 stimulated THP-1 cells, the concentrations of CCL18 and IL-1β polypeptides in the THP-1 supernatants were quantitated by ELISA assay.
CCL18 and IL-1β were quantified in induced THP-1 cell supernatants using a human DuoSet ELISA Development System (R&D Systems Europe, Abingdon, UK: #DY394-05) and an IL-1 beta Human ELISA Kit (Thermo Fisher Scientific, Waltham, MA; #BMS224-2) as described by manufactures. BALF samples were analyzed for mouse IFN-γ using ELISA MAX™ Deluxe (Biolegend, San Diego, CA; #430804).
Additionally, cell supernatants were collected and secreted CCL18 protein was detected by ELISA.

[2] = test system: FRβ-expressing macrophages; assay: In vivo folate imaging with OTL38, resected organs; parameters: species or system C57BL/6 mice
Experimental: (§1) To evaluate if anti-inflammatory lung macrophages in these mice can be specifically targeted with folate-linked drugs, 10 days after the instillation, 10 nmol (for in vivo imaging) or 100 nmol (for in vivo labeling) of a folate-linked, near infrared fluorescent dye (OTL38) with or without 200-fold excess of FA-glucosamine (a competitor of OTL38) was injected into the tail veins of BM-treated mice and the dye uptake in the major organs was evaluated.
(§2) Finally, for the in vivo folate imaging studies, major organs (heart, lung, spleen, liver, small intestine, large intestine, and kidney) were resected and imaged using an AMI live imager (Spectral Instruments Imaging, Tucson, AZ). For in vivo folate receptor labeling studies, lungs of the mice were harvested immediately following euthanasia, digested with a lung dissociation kit (Miltenyi Biotec, Bergisch Gladbach, DE; #130-098-427) as described by gentleMACS Octo Dissociator with Heathers (Miltenyi Biotec, Bergisch Gladbach, DE; #130-096-427) as described by manual and filtered through a 70 μm cell strainer (Miltenyi Biotec, Bergisch Gladbach, DE: #130-098-462). Cells collected in the filtrate were depleted of erythrocytes by ammonium sulfate lysis, washed 2× in cold PBS and labeled for 30 min on ice with antibodies to desired macrophage markers (FITC-CD11b, Biolegend, San Diego, CA; #101205; FE-F4/80. Biolegend. San Diego, CA: #123109). Labeled macrophages were then washed twice in PBS, stained with 7AAD (viability stain) for 15 min and analyzed by flow cytometry using BD Accuri C6 Software (BD Biosciences, San Jose, CA).
FIGS. 7C and 7D show FRβ IHC staining of human IPF lung tissue (FIG. 7C) and healthy human lung tissue (FIG. 7D). […] After 2 hours, mice were sacrificed prior to analysis. […] For in vivo folate receptor labeling studies, lungs of the mice were harvested immediately following euthanasia, digested and then labeled with antibodies to desired macrophages markers (FITC-CD11b, PE-F4/80) and 7AAD (live/dead staining) and analyzed by flow cytometry.

FRβ positive macrophages = assay: In vivo folate receptor labeling with OTL38, flow cytometry of digested lungs; parameters: species or system C57BL/6 mice; conditions: fibrotic mice
Experimental: as §1
as §2, with “Cells collected in the filtrate were depleted of erythrocytes by ammonium sulfate lysis, washed 2× in cold PBS and labeled for 30 min on ice with antibodies to desired macrophage markers (FITC-CD11b, Biolegend, San Diego, CA; #101205; FE-F4/80. Biolegend. San Diego, CA: #123109).” left out, “CA). […]” for “CA).”

[3] = test system: M2-induced THP-1 macrophages; assay: Reprogramming of M2-polarized THP-1 macrophages, marker mRNA by qPCR; type: cell-based, human; conditions: 2 hours with compound, qPCR
Experimental: THP-1 cells were seeded into 96-well plates at a density of 60,000 cells/well. Cells were differentiated into unpolarized macrophages by 48 hours incubation with 200 nM PMA followed by 24 hours incubation in fresh RPMI medium. […] Cultures were maintained at 37° C., in a humidified 5% CO2 incubator.
Total RNA was isolated from 1×10^5-2×10^5 macrophages using a Quick-RNA™ MicroPrep kit (Zymo Research, Irvine, CA) according to the manufacturer-recommended protocol. The RNA samples were then reverse-transcribed into cDNA using high-capacity cDNA reverse transcription kits (Applied Biosystems, Foster City, CA; #4368814), qPCR analyses were performed using the iTaq™ Universal SYBR Green SuperMix (Bio-Rad Laboratories GmbH, Hercules, CA; #1725121), iCycler thermocycler, and iCycler iQ 3.0 software (Bio-Rad Laboratories GmbH, Hercules, CA) to track the expression of markers characteristic of macrophage polarization states, IL-6, CXCL10, IFNα, IFN-γ and CD86 were used as markers for an M1 phenotype, while CCL18. CD206, CD163 and Arg1 were employed as markers for the M2 phenotype, IL-1β, PDGFβ, MMP9 and TIMP 3 were measured as indicators of an anti-inflammatory phenotype. IRAK-4 was used as an indicator of TLR7 stimulation. To control for specificity of the amplification products, a melting curve analysis was performed. […] Each sample was analyzed independently in triplicate for each marker.
In both data sets, the cells were harvested for gene analysis by qPCR.
Primarily, human monocytic (THP-1) cells were induced to the M2-like phenotype using the methods and materials previously described. In particular, THP-1 cells were seeded into 96-well plates at a density of 60,000 cells/well. Cells were differentiated into unpolarized macrophages by 48 h incubation with 200 nM PMA followed by 24 hours incubation in fresh RPMI medium. The resulting macrophages were polarized to an M2-like phenotype by incubation with […] IL-4, 20 ng/ml […], and 5 ng/mL IL-6 for 48h. Cultures were maintained at 37° C. in a humidified 5% CO2 incubator.
In addition to the nonconjugated TLR7 agonist, conjugated compounds of the present disclosure were likewise evaluated. Human THP-1 cells were induced to macrophages having the M2-like phenotype per the methods set forth herein (e.g., using 20 ng/mL IL-4, 20 ng/mL IL-13, 5 ng/mL IL-6), then reprogrammed with different nM concentrations of various compounds of the present disclosure for 2 hours; namely, a nonconjugated (free drug) TLR7 agonist compound having formula I and/or II (data shown collectively as Compound 3A), a folate-conjugated TLR7 agonist compound having formula XV (having a releasable linker) (e.g., Compound 3B), a folate-conjugated TLR7 agonist compound having formula XVII (having a non-releasable linker) (e.g., Compound 3C), and a folate-conjugated TLR7 agonist compound having formula XVI (having a non-releasable linker) (e.g., Compound 3D). The cells were subsequently harvested for gene analysis by qPCR and the relative expression of CCL18 (FIG. 14A), CD206 (FIG. 14B), and IL-1β (FIG. 14C) analyzed.

BM-induced mice = test system: BM-induced mice
Experimental: Studies were also performed to determine if macrophages in pulmonary fibrotic lungs might be specifically targeted with folate-linked drugs in vivo. […] (The BM model is widely regarded to be helpful in terms of enabling mechanistic investigations relevant to fibrogenesis in an in vivo context.)
More specifically, eight-week-old C57BL6 male mice from Charles River (average weight 22 g to 25 g) were housed under pathogen-free conditions at room temperature (22° C.) under a 12 hours light-dark cycle. Mice were placed on a folate deficient chow (Envigo Teklad Global Rat Food Pellets) for 1 week prior to the BM or PBS instillation. Fresh water and folate-deficient diet were freely available. All animal procedures were approved by the Purdue Animal Care and Use Committee in accordance with National Institute of Health guidelines.
Thereafter, the mice were anesthetized with ketamine/xylazine and the necks of the mice were shaved using hair remover lotion and then sterilized with 70% alcohol. A small incision was made on the neck to visualize the trachea. Mice were positioned at a 75-degree angle and injected intratracheally with 100 μL sterile PBS or BM (Cayman Chemicals, Ann Arbor, MI; #13877) dissolved in PBS (0.75 mg/kg) using a 1 cc syringe with 26 G needle. Body weights were monitored every other day throughout the experiment.
Lobes of the right lung collected above were weighed, placed in a pressure-tight vial (Supelco Inc., Bellefonte, PA; #27003), and hydrolyzed with 6N HCl (10 ml/g, v/w) in a sand bath at 120° C., for 3.5 hours. The hydrolyzed solution was cooled at 4° C., for 15 min and transferred to a 1.5 ml Eppendorf tube prior to centrifugation at 12,000 rcf for 15 min at 4° C. Supernatant was carefully collected, aliquoted and used for hydroxyproline (HYP) analysis.
For the subsequent HYP analysis, 10 μl of sample was transferred into a 96-well plate and neutralized with 10 μl of 5.3 M sodium hydroxide solution. Isopropanol ([…]) was then added to each well followed by 20 μl of oxidation buffer and the mixture was incubated on a shaker at room temperature for 5 min. Analytical reagent (260 μl) was added, and the plate was incubated on a shaker at room temperature for 30 seconds and incubated immediately at 60° C., for 25 min. The absorbance was measured at 560 nm (A560) within 15 min. All reagents were prepared according to a previously reported protocol.
For histological analysis of the lung sections, fixed lungs (see above) were embedded in paraffin, sectioned and stained with hematoxylin-eosin (H&E), Masson's trichrome or F3 (anti-mouse FRβ antibody). Tissue sections were examined in a blinded manner by a licensed pathologist. More than 90×10^6 cells were quantified per section using Aperio-Image Scope (Leica Biosystems, Wetzlar, DE).
For this, BM-treated mice were intravenously injected every other day beginning on day 10 with either vehicle (3% DMSO in PBS) or Compound 1B (see FIG. 8A). […] In BM-induced experimental pulmonary fibrosis in mice, inflammation is known to persist for about 9-10 days after BM installation. Because, inflammation to fibrosis switch happens in this model approximately day 9 to day 14, and anti-inflammatory markers start appearing at about day 10, dosing began on day 10 (FIG. 8A).
Two doses were given every other day till day 21. The individual doses on a day are separated by 6 hours to prevent any “tolerance” to TLR agonists. Mice were then sacrificed on day 21 and subjected immediately to bronchoalveolar lavage followed by resection of the lungs for immunohistochemistry and quantitation of collagen and hydroxyproline.

Compound | secretion of CCL18 protein [1] | CCL18 relative expression [3] | CD206 relative expression [3] | IL-1β relative expression [3] | reduction of anti-inflammatory markers relative to the other compounds [3] | also measured
Nc1nc(C(F)(F)F)cc2c1[nH]c(=O)n2Cc1ccc(NCCN2CCCC(CO)C2)nc1 (stereo not drawn) [Compound 3A] | downregulated |  |  |  |  | 
OTL38 |  |  |  |  |  | OTL38 accumulation in organs ([2]; BM-treated mice, day 10, 10 nmol tail vein, 2 h): pronounced accumulation in the fibrotic lungs; lung accumulation under competition ([2]; BM-treated mice, with 200-fold excess folate-glucosamine): nearly quantitative blockade of lung accumulation; OTL38 fluorescence in organs ([2]; healthy mice, 10 nmol tail vein, 2 h): only observed in the kidneys of healthy mice; macrophage-like cells with folate-targeted dye retention (FRβ positive macrophages; 100 nmol OTL38): about 22%; folate-dye retention under competition (FRβ positive macrophages; 100 nmol OTL38 with 200-fold excess folate-glucosamine): blocked essentially all folate-dye retention
Nc1nc2ncc(CNc3ccc(C(=O)N[C@@H](CCC(=O)NCCOCCOCCOCCOCCOCCOCCOCCOCCOCCOCCOCCOCCOCC4CCCN(CCNc5ccc(Cn6c(=O)[nH]c7c(N)nc(C(F)(F)F)cc76)cn5)C4)C(=O)O)cc3)nc2c(=O)[nH]1 (stereo partly drawn) [Compound 3C] | downregulated | reduced | reduced | reduced | most effective | benefit to the subject mice (BM-induced mice; 3 nmol dosage): did not show measurable benefit; hydroxyproline (HP) (BM-induced mice; 10 nmol dosage): decreasing; number of BALF cells (BM-induced mice; 10 nmol dosage): decreasing; survival rates (BM-induced mice; 10 nmol dosage): increased the survival rates
Nc1nc2ncc(CNc3ccc(C(=O)NC(CCC(=O)N[C@@H](CSSCCOC(=O)OCC4CCCN(CCNc5ccc(Cn6c(=O)[nH]c7c(N)nc(C(F)(F)F)cc76)cn5)C4)C(=O)O)C(=O)O)cc3)nc2c(=O)[nH]1 (stereo partly drawn) [Compound 3B] | downregulated | reduced | reduced | reduced |  | 
Nc1nc2ncc(CNc3ccc(C(=O)N[C@@H](CCC(=O)NCCOCCOCCOCCOCC4CCCN(CCNc5ccc(Cn6c(=O)[nH]c7c(N)nc(C(F)(F)F)cc76)cn5)C4)C(=O)O)cc3)nc2c(=O)[nH]1 (stereo partly drawn) [Compound 3D] | downregulated | reduced | reduced | reduced | most effective | 
